Assay results: ChEMBL document CHEMBL1201862, “PubChem BioAssay data set” (2004)
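Exposure lasted 48 hours, with cells grown in 96-well plates and compounds tested at five concentrations. GI50: concentration for 50% inhibition of growth.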 Calls of active or inactive are those of the source. Rule as the data show it: active = GI50 up to about 1.1 µM and inactive = higher.

Legend:
Experiment in all cases: growth of human tumour cells (NCI), 48 h
786-0 = system: 786-0
ACHN = system: ACHN
BT-549 = system: BT-549
CAKI-1 = system: CAKI-1
KM12 = system: KM12
M14 = system: M14
MDA-MB-435 = system: MDA-MB-435
NCI-H522 = system: NCI-H522
NCI/ADR-RES = system: NCI/ADR-RES
OVCAR-4 = system: OVCAR-4
OVCAR-8 = system: OVCAR-8
RXF 393 = system: RXF 393
SF-268 = system: SF-268
SK-MEL-2 = system: SK-MEL-2
SK-MEL-5 = system: SK-MEL-5
SNB-75 = system: SNB-75
T47D = system: T47D
UO-31 = system: UO-31
DU-145 = system: DU-145
MDA-N = system: MDA-N

Measured: GI50

O=C(N/N=C\c1cccs1)c1ccncc1
inactive: 786-0 > 100 µM | ACHN > 100 µM | BT-549 > 100 µM | CAKI-1 > 100 µM | KM12 > 100 µM | M14 > 100 µM | MDA-MB-435 > 100 µM | NCI-H522 > 100 µM | NCI/ADR-RES > 100 µM | OVCAR-4 > 100 µM | OVCAR-8 > 100 µM | RXF 393 > 100 µM | SF-268 > 100 µM | SK-MEL-2 > 100 µM | SK-MEL-5 > 100 µM | SNB-75 > 100 µM | T47D > 100 µM | UO-31 > 100 µM

COc1ccc(C2C3=C(CCCC3=O)N(c3ccccc3)C3=C2C(=O)CCC3)cc1
inactive: 786-0 45.6 µM | ACHN > 100 µM | BT-549 29.4 µM | CAKI-1 > 100 µM | KM12 > 100 µM | M14 > 100 µM | NCI/ADR-RES > 100 µM | OVCAR-4 61.5 µM | RXF 393 19.5 µM | SF-268 79.4 µM | SK-MEL-5 > 10 µM | SNB-75 28.2 µM | UO-31 > 100 µM

COc1cc(N(Cc2ccc3oc(=O)c(-c4ccccc4)nc3c2)Cc2ccc3oc(=O)c(-c4ccccc4)nc3c2)cc(OC)c1OC
inactive: 786-0 > 10 µM | ACHN > 10 µM | CAKI-1 > 10 µM | DU-145 > 10 µM | KM12 > 10 µM | M14 > 10 µM | MDA-MB-435 > 10 µM | MDA-N > 10 µM | NCI-H522 > 10 µM | NCI/ADR-RES > 10 µM | OVCAR-4 > 10 µM | OVCAR-8 > 10 µM | RXF 393 > 10 µM | SF-268 > 10 µM | SK-MEL-2 > 10 µM | SK-MEL-5 > 10 µM | SNB-75 > 10 µM | T47D > 10 µM | UO-31 > 10 µM

COC(=O)c1nc(-c2nc(CCNC(=O)OC(C)(C)C)sc2Cl)sc1Cl
inactive: 786-0 > 100 µM | ACHN 83.2 µM | BT-549 34.5 µM | DU-145 > 100 µM | KM12 55.3 µM | M14 32.1 µM | MDA-MB-435 92 µM | MDA-N 49.9 µM | NCI/ADR-RES 32.2 µM | OVCAR-8 35.5 µM | RXF 393 > 100 µM | SF-268 74.6 µM | SK-MEL-5 31.8 µM | SNB-75 23.1 µM | UO-31 89.7 µM

Cc1nc2cccc(F)c2c(=O)n1-c1nnc(C(F)(F)F)s1
inactive: 786-0 > 10 µM | ACHN > 10 µM | CAKI-1 > 10 µM | DU-145 > 10 µM | KM12 > 10 µM | M14 > 10 µM | MDA-MB-435 > 10 µM | MDA-N > 10 µM | NCI-H522 > 10 µM | NCI/ADR-RES > 10 µM | OVCAR-4 > 10 µM | OVCAR-8 > 10 µM | RXF 393 > 10 µM | SF-268 > 10 µM | SK-MEL-2 > 10 µM | SK-MEL-5 > 10 µM | SNB-75 > 10 µM | T47D > 10 µM | UO-31 > 10 µM

NNC(=O)CNC(=O)CSc1nnc(COc2ccc(Cl)cc2)n1-c1ccccc1
inactive: 786-0 > 100 µM | ACHN > 100 µM | CAKI-1 > 100 µM | DU-145 > 100 µM | KM12 > 100 µM | M14 > 100 µM | MDA-MB-435 > 100 µM | MDA-N > 100 µM | NCI-H522 41.8 µM | NCI/ADR-RES > 100 µM | OVCAR-4 > 100 µM | OVCAR-8 > 100 µM | RXF 393 > 100 µM | SF-268 > 100 µM | SK-MEL-2 > 100 µM | SNB-75 > 100 µM | T47D > 100 µM | UO-31 > 100 µM

O=c1cc(CBr)c2ccc(O)cc2o1
inactive: 786-0 > 100 µM | ACHN 66.4 µM | BT-549 35.1 µM | CAKI-1 43.6 µM | DU-145 92 µM | KM12 54.1 µM | M14 59.6 µM | MDA-MB-435 39 µM | MDA-N 98.9 µM | NCI-H522 42.1 µM | NCI/ADR-RES 87.9 µM | OVCAR-8 70.6 µM | RXF 393 31.8 µM | SF-268 > 100 µM | SK-MEL-2 > 100 µM | SK-MEL-5 45.9 µM | SNB-75 > 100 µM | UO-31 58.5 µM

O=C(OC[C@H]1C[C@H]2C(=O)OCCC[C@H]2O1)c1ccccc1
inactive: 786-0 > 100 µM | ACHN > 100 µM | CAKI-1 > 100 µM | DU-145 > 100 µM | KM12 > 100 µM | M14 > 100 µM | MDA-MB-435 > 100 µM | MDA-N > 100 µM | NCI-H522 > 100 µM | NCI/ADR-RES > 100 µM | OVCAR-4 > 100 µM | OVCAR-8 > 100 µM | SF-268 > 100 µM | SK-MEL-2 > 100 µM | SK-MEL-5 > 100 µM | SNB-75 > 100 µM | T47D > 100 µM | UO-31 > 100 µM

O=C1CCCC1CC(CN1CCOCC1)Sc1nnnn1-c1ccccc1 (stereo not given)
inactive: 786-0 > 100 µM | ACHN 31 µM | BT-549 > 100 µM | CAKI-1 16.8 µM | DU-145 77.4 µM | KM12 > 100 µM | M14 > 100 µM | MDA-MB-435 > 100 µM | MDA-N > 100 µM | NCI-H522 > 100 µM | NCI/ADR-RES > 100 µM | OVCAR-4 > 100 µM | OVCAR-8 > 100 µM | RXF 393 34.6 µM | SK-MEL-2 > 100 µM | SK-MEL-5 > 100 µM | SNB-75 21.3 µM | UO-31 96.8 µM

COc1ccc(-c2c(C(C)=O)c(-c3ccccc3)n(C3OC(COC(C)=O)C(OC(C)=O)C(OC(C)=O)C3OC(C)=O)c(=S)c2C#N)cc1 (stereo not given)
inactive: 786-0 > 100 µM | ACHN > 100 µM | CAKI-1 > 100 µM | DU-145 > 100 µM | KM12 > 100 µM | M14 > 100 µM | MDA-MB-435 > 100 µM | MDA-N > 100 µM | NCI-H522 > 100 µM | NCI/ADR-RES > 100 µM | OVCAR-4 > 100 µM | OVCAR-8 > 100 µM | RXF 393 > 100 µM | SF-268 > 100 µM | SK-MEL-5 > 100 µM | SNB-75 80.9 µM | T47D > 100 µM

CCOc1ccc(N/C(=C(/C(Cl)=C(/Cl)N(CC)CC)[N+](=O)[O-])n2nnc3ccccc32)cc1
inactive: 786-0 17.2 µM | ACHN 20 µM | BT-549 19.8 µM | CAKI-1 13.4 µM | KM12 12 µM | M14 31.8 µM | MDA-MB-435 19.5 µM | MDA-N 26.7 µM | NCI/ADR-RES 21.1 µM | OVCAR-4 19.7 µM | OVCAR-8 16.2 µM | RXF 393 14.4 µM | SF-268 15.7 µM | SK-MEL-2 28.2 µM | SNB-75 20.3 µM | T47D 14.2 µM | UO-31 19.6 µM
